In paper PMC8453635, “Piperidine Azasugars Bearing Lipophilic Chains: Stereoselective Synthesis and Biological Activity as Inhibitors of Glucocerebrosidase (GCase)” (The Journal of Organic Chemistry, 2021):
Where a chain is given by its changes, count along the chain named. “Also recorded” adds a separate entry of the source.

Tests used:
[1] = target: T1, GCase in fibroblasts bearing the N370S/RecNcil mutation (Homo sapiens, UniProt P04062, A495P/L483P/N409S); experiment: Pharmacological chaperoning activity in N370S/RecNcil Gaucher fibroblasts; type: cell-based; settings: for cell viability: 50 µM and 100 µM, 4 days; for GCase enzymatic activity rescue: 4 days incubation
T1 construct: fibroblasts derived from Gaucher patients bearing the N370S/RecNcil and L444P/L444P mutations; host or cells: fibroblasts from Gaucher disease patients, N370S/RecNcil
T1 sequence (P04062 40-536 N409S): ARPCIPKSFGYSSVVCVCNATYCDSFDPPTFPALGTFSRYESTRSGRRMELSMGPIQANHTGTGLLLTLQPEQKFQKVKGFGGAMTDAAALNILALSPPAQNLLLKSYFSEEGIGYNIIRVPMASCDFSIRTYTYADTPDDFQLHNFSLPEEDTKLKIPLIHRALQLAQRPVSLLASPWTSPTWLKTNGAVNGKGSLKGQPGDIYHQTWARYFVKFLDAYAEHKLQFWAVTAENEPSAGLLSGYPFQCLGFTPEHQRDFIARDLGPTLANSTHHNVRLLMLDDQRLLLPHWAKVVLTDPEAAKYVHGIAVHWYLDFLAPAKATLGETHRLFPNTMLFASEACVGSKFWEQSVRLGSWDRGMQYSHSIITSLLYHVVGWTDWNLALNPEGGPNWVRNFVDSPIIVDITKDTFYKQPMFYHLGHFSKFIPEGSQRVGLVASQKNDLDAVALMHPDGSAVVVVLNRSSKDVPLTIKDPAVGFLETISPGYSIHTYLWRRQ
Procedure: (§1) The ability of compounds 14 and 15 to enhance the activity of GCase after incubation (4 days) with fibroblasts bearing the selected mutations was evaluated. The experiments were performed using fibroblasts derived from Gaucher patients bearing the N370S/RecNcil and L444P/L444P mutations (see the Supporting Information section).
(§2) Fibroblasts with the N370S/RecNcil (or L444P/L444P) mutation from Gaucher disease patients were obtained from the “Cell line and DNA Biobank from patients affected by Genetic Diseases” (Gaslini Hospital, Genova, Italy). Fibroblast cells (15.0 × 10^4) were seeded in T25 flasks with DMEM supplemented with fetal bovine serum (10%), penicillin/streptomycin (1%), and glutamine (1%) and incubated at 37 °C with 5% CO2 for 24 h. The medium was removed, and fresh medium containing the compounds (14, 15 and 33·HCl) was added to the cells and incubated for 4 days. The medium was removed, and the cells were washed with PBS and detached with trypsin to obtain cell pellets, which were washed four times with PBS, frozen, and lysed by sonication in water. Enzyme activity was measured as reported above. Reported data are mean S.D. (n = 2).
Pharmacological chaperoning activity
Figure S50. Fibroblasts derived from GD patients bearing N370S/RecNcil mutations were incubated without (control, ctrl) or with 7 different concentrations (10 nM, 50 nM, 100 nM, 1 μM, 10 μM, 50 μM, 100 μM) of compounds 14 and 15. After 4 days, the flasks containing cells incubated with 50 µM and 100 µM […]
(§3) other concentrations, the GCase activity was determined in lysates from treated fibroblasts. Reported data are mean S.D. (n=2).
(also on this page, place not known: beta glucosidase activity (nmol/mg/h) beta glucosidase activity (nmol/mg/h)) […]
Figure S51. Fibroblasts derived from GD patients bearing N370S/RecNcil mutations were incubated without (control, ctrl) or with […] different concentrations (5 nM, 10 nM, 100 nM, 1 μM, 10 μM, 30 μM) of compound 33.HCl. After 4 days, the GCase activity was determined in lysates from treated fibroblasts. Reported […]
(also on this page, place not known: beta glucosidase activity (nmol/mg/h))

[2] = target: T2, GCase in fibroblasts bearing the L444P/L444P mutations (Homo sapiens, UniProt P04062, L483P); experiment: Pharmacological chaperoning activity in L444P/L444P Gaucher fibroblasts; type: cell-based; settings: for cell viability: 50 µM, 4 days; for GCase enzymatic activity rescue: 4 days incubation, 5 nM to 10 μM
T2 construct: fibroblasts derived from Gaucher patients bearing the N370S/RecNcil and L444P/L444P mutations; host or cells: fibroblasts from Gaucher disease patients, L444P/L444P
T2 sequence (P04062 40-536 L483P): T1 sequence (P04062 40-536 N409S) with S370N, L444P
Procedure: as §1, §2
Figure S52. Fibroblasts derived from GD patients bearing L444P/L444P mutations were incubated without (control, ctrl) or with 7 different concentrations (5 nM, 10 nM, 50 nM, 100 nM, 1 µM, 10 µM, 50 µM) of compounds 14 or 15. After 4 days, the flasks containing cells incubated with 50 µM […]
as §3
(also on this page, place not known: beta glucosidase activity (nmol/mg/h) beta glucosidase activity (nmol/mg/h))

Structure (SMILES)	cell viability [1]	GCase enzymatic activity rescue ([1]; 5 nM to 10 μM)	cell viability [2]	GCase enzymatic activity rescue [2]	GCase enzymatic activity rescue ([1]; 5 nM to 30 μM)
CCCCCCCC[C@H]1[C@@H](O)[C@H](O)[C@H](O)CN1CCCCCCCC [compound 14, (2S,3R,4R,5R)-1,2-Dioctylpiperidine-3,4,5-triol]	low cell viability	no enzymatic activity rescue; also recorded: no GCase activity enhancements	low cell viability	no enzymatic activity rescue; also recorded: no GCase activity enhancements	
CCCCCCCC[C@@H]1[C@@H](O)[C@H](O)[C@H](O)CN1CCCCCCCC [compound 15, (2R,3R,4R,5R)-1,2-Dioctylpiperidine-3,4,5-triol]	low cell viability	no enzymatic activity rescue; also recorded: no GCase activity enhancements	low cell viability	no enzymatic activity rescue; also recorded: no GCase activity enhancements	
CCCCCCCC[C@@H]1[C@@H](O)[C@H](O)[C@H](O)CN1C(CCCCCCC)CCCCCCC.Cl [compound 33·HCl, (2R,3R,4R,5R)-2-Octyl-1-(pentadecan-8-yl)-piperidine-3,4,5-triol Hydrochloride]					no enzymatic activity rescue; also recorded: no GCase activity enhancements
